For data set [1], the system named is Mycobacterium tuberculosis. As to the kind of experiment: Antimycobacterial activity against Mycobacterium tuberculosis H37Rv after 16 to 24 hrs by microplate alamar blue assay. It counts as functional. (Resazurin is reduced to fluorescent resorufin, in cell work by metabolically active cells.)
A short description of data set [2]: Metabolic stability in mouse liver microsomes after 1 hr at 37 degC. Conditions: for remaining at 1 h: liver microsomes, read-out: Stability. In kind it is ADME, Microsome. (In general: Liver microsomes are vesicles of endoplasmic reticulum, rich in cytochrome P450 enzymes.)
Data set [3] deals with Mycobacterium tuberculosis. As to the kind of experiment: Antimycobacterial activity against Mycobacterium tuberculosis H37Rv expressing pFCA-luxAB after 10 days by luminescence-based low-oxygen recovery assay. It counts as functional. Conditions: 240 h.
A further data set relates to Vero. Put plainly: Cytotoxicity against african green monkey Vero cells after 72 hrs by tetrazolium dye assay. It counts as cell-based. To be noted: Chlorocebus sabaeus.
Data set [4] is described as follows: (§1) Metabolic stability in human liver microsomes after 1 hr at 37 degC. It counts as ADME, Microsome. To be noted: liver microsomes, read-out: Stability.
Data set [5] can be described thus: Solubility in water at pH 7 at 20 degC. It counts as physicochemical.
The subject of data set [6] is Mycobacterium tuberculosis. As to the kind of experiment: Antitubercular effect in Mycobacterium tuberculosis infected BALB/c mouse assessed as CFU reduction at 100 mg/kg, po administered 5 days a week for 3 weeks relative to PA-824. It counts as functional.
The test system of the next data set is Liver microsomes. The data set is described as §1. It counts as ADME, Microsome. Conditions: microsomes, 1 h.
Data set [7] can be described thus: Thermodynamic solubility in water at pH 7.4 at. Conditions: for solubility thermodynamic: water. In kind it is physicochemical.

≈ marks a conversion by molar mass, not a printed value.

The term MIC denotes the smallest concentration in the dilution series that meets the test's criterion for growth inhibition. For orientation: IC50 means the concentration at which inhibition is half-maximal. As for `O=[N+]([O-])c1cn2c(n1)OC[C@@H](OCc1nnn(-c3ccc(OC(F)(F)F)cc3)n1)C2`, the minimum inhibitory concentration (MIC) in data set [1] stood at 0.035 µM (≈ 0.015 µg/mL); in [3], 1.3 µM (≈ 0.555 µg/mL). Moreover, the remaining at 1 h in data set [2] was 81%. Besides, the IC50 with Vero is greater than 128 µM.
By solubility is commonly meant the dissolved amount per volume that the medium holds. On to `O=[N+]([O-])c1cn2c(n1)OC[C@@H](OCc1ccc(-c3ccc(C(F)(F)F)nc3)s1)C2`, for which the remaining at 1 h in [4] was 85%; in data set [2] it was 77%. In data set [5], this compound gave a solubility of 8.9 µg/mL (≈ 20.9 µM). Besides, the MIC turned out to be 0.05 µM (≈ 0.0213 µg/mL) in [1] and 4.4 µM (≈ 1.88 µg/mL) in data set [3]. Further, in [6], the “fold change (FC)” value was found to be 2.3. This compound also displayed a 50% inhibitory concentration (IC50) in the data set with Vero greater than 128 µM.
In [5], `O=[N+]([O-])c1cn2c(n1)OC[C@@H](OCc1cnn(-c3ccc(C(F)(F)F)cc3)n1)C2` had a solubility of 1 µg/mL (≈ 2.44 µM). Moreover, the minimal inhibitory concentration (MIC) in data set [1] came out at 0.05 µM (≈ 0.0205 µg/mL); in data set [3], 2.1 µM (≈ 0.862 µg/mL). Further, the IC50 with Vero was greater than 128 µM.
Turning to `N#Cc1ccc(-c2ccc(CO[C@@H]3COc4nc([N+](=O)[O-])cn4C3)s2)cc1`, the remaining at 1 h turned out to be 85% in data set [4] and 54% in data set [2]. Also, the minimum inhibitory concentration (MIC) in [1] was 0.055 µM (≈ 0.021 µg/mL); in data set [3] it was 1.7 µM (≈ 0.65 µg/mL). In data set [6], the “fold change (FC)” value was 0.02. For the same compound, the concentration for half-maximal inhibition (IC50) with Vero was greater than 128 µM.
Consider `O=[N+]([O-])c1cn2c(n1)OC[C@@H](OCc1cnn(-c3ccc(OC(F)(F)F)cc3)c1)C2`, for which the values for the remaining at 1 h in data set [4] and in data set [2] were 87% and 64%, respectively. Also, the minimal inhibitory concentration (MIC) in data set [1] was determined as 0.15 µM (≈ 0.0638 µg/mL); in data set [3], 1.8 µM (≈ 0.766 µg/mL). The “fold change (FC)” value in data set [6] worked out at 1.5. The IC50 in the data set on Vero was greater than 128 µM.
In general, thermodynamic solubility refers to the concentration in solution at equilibrium with solid. With `O=[N+]([O-])c1cn2c(n1)OC[C@@H](OCc1ccn(-c3ccc(OC(F)(F)F)cc3)n1)C2`, the Stability in the data set with Liver microsomes was 87%; in [2] (microsomes, 1 h), 67%. In addition, the MIC in data set [1] was 0.05 µM (≈ 0.0213 µg/mL); in data set [3] it was 0.61 µM (≈ 0.259 µg/mL). Besides, the thermodynamic solubility in data set [7] came to 23 µg/mL (≈ 54.1 µM). In addition, the “fold change (FC)” value in [6] was found to be 41. In the data set on Vero, the 50% inhibitory concentration (IC50) was greater than 128 µM.
For the compound `O=[N+]([O-])c1cn2c(n1)OC[C@@H](OCc1cn(-c3ccc(OC(F)(F)F)cc3)nn1)C2`, the results for the remaining at 1 h in data set [4] and in data set [2] were 99% and 74%, respectively. Moreover, the MIC in data set [1] amounted to 0.075 µM (≈ 0.032 µg/mL); in data set [3], 3.3 µM (≈ 1.41 µg/mL). The “fold change (FC)” value in data set [6] came to 0.34. Moreover, in the data set with Vero, the IC50 is greater than 128 µM.
For the compound `O=[N+]([O-])c1cn2c(n1)OC[C@@H](OCc1nnn(-c3ccc(C(F)(F)F)cc3)n1)C2`, the concentration in solution in data set [5] (solubility) came to 5 µg/mL (≈ 12.2 µM). Besides, the MIC in [1] is 0.2 µM (≈ 0.0823 µg/mL); in data set [3], 1.4 µM (≈ 0.576 µg/mL). Moreover, in the data set with Vero, the IC50 is greater than 128 µM.
Take `Cn1nc(-c2ccc(OC(F)(F)F)cc2)cc1CO[C@@H]1COc2nc([N+](=O)[O-])cn2C1`: the remaining at 1 h in data set [4] is 86%; in data set [2], 81%. Also, the values for the MIC in [1] and in data set [3] were 0.06 µM (≈ 0.0264 µg/mL) and 0.58 µM (≈ 0.255 µg/mL), respectively. For the same compound, in data set [7] (buffer), the solubility turned out to be 0.88 µg/mL (≈ 2 µM). Further, in data set [6], the “fold change (FC)” value was found to be 12. Besides, the IC50 in the data set on Vero was greater than 128 µM.
As for `O=[N+]([O-])c1cn2c(n1)OC[C@@H](OCc1ccc(-c3ccc(OC(F)(F)F)cc3)cc1)C2`, in [3], the MIC is 1.3 µM (≈ 0.566 µg/mL). Moreover, the solubility (thermodynamic) in data set [7] was less than 0.5 µg/mL. Also, in the data set with Vero, the 50% inhibitory concentration (IC50) was greater than 128 µM.
For `O=[N+]([O-])c1cn2c(n1)OC[C@@H](OCc1ccc(OC(F)(F)F)cc1)C2` [PRETOMANID], in that order: 2.6 µM (≈ 0.934 µg/mL), 11 µg/mL (≈ 30.6 µM) and greater than 128 µM.

Source of the values: ChEMBL document CHEMBL1156790, “Synthesis and structure-activity relationships of antitubercular 2-nitroimidazooxazines bearing heterocyclic side chains” (J Med Chem, 2010).
